According to PubChem BioAssay AID1963871 (Molecular Pharmacology Branch, DTP, NCI, 2024):
pIC50: −log10 of the molar value.

Tested on: KRAS-mutant PDC multicell tumor spheroid viability
Assay: Anticancer human tumor 521955-158-R2-J5-PDC patient-derived pancreatic carcinoma cell line growth inhibition [KRAS2]
Conditions: for pIC50: curve of first compound; for viability, T/C: stronger effect = lower value
Procedure, shortened: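 Combination screen of spheroid viability in tumor-cell co-cultures with endothelial (HUVEC) and mesenchymal stem cell stroma. Each agent was tested in half-log dilutions, topping at clinical Cmax or at 10 microM without a known Cmax.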
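Also: viability read after seven days of drug exposure.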

## CC(=O)Nc1cccc(-n2c(=O)n(C3CC3)c(=O)c3c(Nc4ccc(I)cc4F)n(C)c(=O)c(C)c32)c1 + C=CC(=O)N1CCN(c2nc(OCC3CCCN3C)nc3c2CCN(c2cccc4cccc(C)c24)C3)CC1CC#N
Second compound 0.0316 µM
  pIC50: 9.54
Second compound 0.1 µM
  pIC50: 9.54
Second compound 0.316 µM
  pIC50: 9.71
Second compound 1 µM
  pIC50: 9.61
Second compound 3.16 µM
  pIC50: > 10.00
Second compound 0.0316 µM, first compound 0.0001 µM
  viability, T/C: 74.2%
Second compound 0.0316 µM, first compound 0.000316 µM
  viability, T/C: 44.9%
Second compound 0.0316 µM, first compound 0.001 µM
  viability, T/C: 34.6%
Second compound 0.0316 µM, first compound 0.00316 µM
  viability, T/C: 26.5%
Second compound 0.0316 µM, first compound 0.01 µM
  viability, T/C: 20.1%
Second compound 0.0316 µM, first compound 0.0316 µM
  viability, T/C: 15%
Second compound 0.1 µM, first compound 0.0001 µM
  viability, T/C: 61.9%
Second compound 0.1 µM, first compound 0.000316 µM
  viability, T/C: 51.6%
Second compound 0.1 µM, first compound 0.001 µM
  viability, T/C: 30.3%
Second compound 0.1 µM, first compound 0.00316 µM
  viability, T/C: 23.8%
Second compound 0.1 µM, first compound 0.01 µM
  viability, T/C: 18.4%
Second compound 0.1 µM, first compound 0.0316 µM
  viability, T/C: 10.5%
Second compound 0.316 µM, first compound 0.0001 µM
  viability, T/C: 57.5%
Second compound 0.316 µM, first compound 0.000316 µM
  viability, T/C: 46.9%
Second compound 0.316 µM, first compound 0.001 µM
  viability, T/C: 27.5%
Second compound 0.316 µM, first compound 0.00316 µM
  viability, T/C: 21.7%
Second compound 0.316 µM, first compound 0.01 µM
  viability, T/C: 18.9%
Second compound 0.316 µM, first compound 0.0316 µM
  viability, T/C: 8.09%
Second compound 1 µM, first compound 0.0001 µM
  viability, T/C: 69.7%
Second compound 1 µM, first compound 0.000316 µM
  viability, T/C: 43.6%
Second compound 1 µM, first compound 0.001 µM
  viability, T/C: 27.8%
Second compound 1 µM, first compound 0.00316 µM
  viability, T/C: 24.3%
Second compound 1 µM, first compound 0.01 µM
  viability, T/C: 18.2%
Second compound 1 µM, first compound 0.0316 µM
  viability, T/C: 9.76%
Second compound 3.16 µM, first compound 0.0001 µM
  viability, T/C: 3.74%
Second compound 3.16 µM, first compound 0.000316 µM
  viability, T/C: 5.29%
Second compound 3.16 µM, first compound 0.001 µM
  viability, T/C: 0.31%
Second compound 3.16 µM, first compound 0.00316 µM
  viability, T/C: 1.92%
Second compound 3.16 µM, first compound 0.01 µM
  viability, T/C: 0.67%
Second compound 3.16 µM, first compound 0.0316 µM
  viability, T/C: 0.24%
